Measurements from PMC3588188, “Interactions between Human Liver Fatty Acid Binding Protein and Peroxisome Proliferator Activated Receptor Selective Drugs” (PPAR Research, 2013).
Where two headings read alike, the source gives them in different places.

How the values were obtained:
[1] = molecular target: T1, human PPARα LBD (aa 196–468) (Homo sapiens, UniProt Q07869); test: cis-parinaric acid fluorescence displacement assay with PPARα LBD; conditions: cis-parinaric acid (2 μM) displacement, LBD 1 μM; nd = no binding detected; read-out: Ki, PPARαLBD
T1 construct: LBD of human PPARα (aa 196–468); [His]6 (N); made in house; host or cells: E. coli BL21 Codon Plus (DE3)-RIL (plasmid from Krister Bamberg, Astra-Zeneca)
T1 sequence (Q07869 196-468): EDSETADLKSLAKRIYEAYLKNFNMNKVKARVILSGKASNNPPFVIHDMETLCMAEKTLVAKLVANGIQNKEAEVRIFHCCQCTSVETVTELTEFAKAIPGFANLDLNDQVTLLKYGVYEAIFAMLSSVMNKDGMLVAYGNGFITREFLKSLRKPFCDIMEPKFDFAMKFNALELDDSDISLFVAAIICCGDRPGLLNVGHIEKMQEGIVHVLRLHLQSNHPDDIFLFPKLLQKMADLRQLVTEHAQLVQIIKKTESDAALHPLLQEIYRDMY
Experimental: (§1) Proteins were resolved using a step gradient of 0–300 mM imidazole in buffer A (50 mM Tris-HCl, pH 8.0; 500 mM NaCl; 0.5 mM ethylenediaminetetraacetic acid (EDTA); 1 mM dithiothreitol (DTT); 5% (v/v) glycerol) at a flow rate of 5 mL/min (4 column volumes (CVs) washout unbound sample; 0%–30% imidazole over 5 CVs; hold 30% for 2 CVs; 30%–100% imidazole over 5 CVs; hold 100% for 3 CVs).

[2] = molecular target: T2, human PPARδ LBD (aa 171–441) (Homo sapiens, UniProt Q03181); test: cis-parinaric acid fluorescence displacement assay with PPARδ LBD; conditions: cis-parinaric acid (2 μM) displacement, LBD 1 μM; nd = no binding detected; read-out: Ki, PPARδLBD
T2 construct: human PPARδ (aa 171–441); [His]6 (N); made in house; host or cells: E. coli BL21 Codon Plus (DE3)-RIL (plasmid from William Hunter, University of Dundee)
T2 sequence (Q03181 171-441): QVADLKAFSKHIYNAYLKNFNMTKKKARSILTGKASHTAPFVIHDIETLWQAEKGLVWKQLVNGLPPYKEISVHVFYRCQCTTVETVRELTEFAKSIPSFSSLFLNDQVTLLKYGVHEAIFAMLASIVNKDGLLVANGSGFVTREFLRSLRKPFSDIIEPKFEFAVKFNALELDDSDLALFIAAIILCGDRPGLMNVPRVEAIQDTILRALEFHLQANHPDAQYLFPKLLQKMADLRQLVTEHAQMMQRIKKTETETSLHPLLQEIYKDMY
Experimental: as §1

[3] = molecular target: T3, human PPARγ LBD (aa 193–475) (Homo sapiens, UniProt P37231); test: cis-parinaric acid fluorescence displacement assay with PPARγ LBD; assay type: binding
T3 construct: human PPARγ (aa 193–475); [His]6 (N); made in house; host or cells: E. coli BL21 Codon Plus (DE3)-RIL (plasmid from Krister Bamberg, Astra-Zeneca)
T3 sequence (P37231 193-475 isoform P37231-2): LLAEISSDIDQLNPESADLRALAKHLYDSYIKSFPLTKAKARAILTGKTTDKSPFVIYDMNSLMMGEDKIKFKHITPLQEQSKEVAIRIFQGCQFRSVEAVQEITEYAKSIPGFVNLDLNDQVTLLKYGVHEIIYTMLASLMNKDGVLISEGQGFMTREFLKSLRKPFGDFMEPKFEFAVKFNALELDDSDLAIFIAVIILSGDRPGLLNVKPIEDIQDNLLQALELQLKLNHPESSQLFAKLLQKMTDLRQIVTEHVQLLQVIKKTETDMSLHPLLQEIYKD
Experimental: as §1

human L-FABP [4] = molecular target: T4, human L-FABP (Homo sapiens, UniProt P07148); test: Limited proteolysis of L-FABP with trypsin; set-up: [His]6 (N); made in house; host or cells: E. coli BL21 Codon Plus (DE3)-RIL; conditions: drug 0-5 μM, L-FABP 50 μM, 1 hr at 20°C
T4 sequence (P07148 1-127): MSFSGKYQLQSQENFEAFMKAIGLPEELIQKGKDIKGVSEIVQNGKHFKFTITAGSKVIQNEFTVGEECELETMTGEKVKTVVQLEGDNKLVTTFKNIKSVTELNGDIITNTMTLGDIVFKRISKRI
Experimental: The limited proteolysis of L-FABP (50 μM) with sequencing grade trypsin was carried out in buffer D (20 mM Tris-HCl, pH 8.0; 50 mM NaCl; […]. Apo- or holo-drug (0, 0.1, 0.4, 1.0, 5 μM final drug concentration) protein samples were equilibrated with the drug at 20°C for 15 min before protease was added. Digestion reactions were stopped by the addition of 5 μL of 50 mM phenylmethanesulfonyl fluoride (PMSF) followed by one volume of SDS-PAGE sample buffer (12.5% 0.5 M Tris-HCl pH 6.8; 0.005% bromophenol blue; 10% SDS; 10% glycerol; 2% β-mercaptoethanol) and heated for 2 min at 100°C. Samples were resolved on 4% stacking, 20% resolving polyacrylamide gels at 4°C at a constant voltage of 80 V, using the Laemmli buffer system. Gels were stained with Coomassie Blue G-250 and destained with 50% methanol/10% acetic acid (v/v) solution. Gels were dried between cellulose sheets and scanned at 1200 dpi. Protein bands were quantified densitometrically using LabImage 1D gel analysis software V3.4 (Kapelan GmbH, http://www.kapelan-bioimaging.com/).

human L-FABP [5] = molecular target: T4, human L-FABP; test: ANS fluorescence displacement assay with L-FABP
human L-FABP [6] = molecular target: T4, human L-FABP; test: cis-parinaric acid fluorescence displacement assay with L-FABP; conditions: for displacement of cis-parinaric acid fluorescence from L-FABP: extent of probe displacement by drug titration
PPARαLBD = molecular target: T5, PPARαLBD (Homo sapiens, UniProt Q07869); test: PPARαLBD protection from limited proteolysis (western blot); conditions: PPARαLBD 30 μM, drug 0, 1, 5 μM, trypsin 30 min at 20°C
T5 construct: LBD of human PPARα (aa 196–468); [His]6 (N); made in house; host or cells: E. coli BL21 Codon Plus (DE3)-RIL (plasmid from Krister Bamberg, Astra-Zeneca)
T5 sequence (Q07869 196-468): T1 sequence (Q07869 196-468)
Text: […] […] The reaction was quenched by the addition of PMSF and one volume of SDS-PAGE sample buffer as detailed above. Samples were resolved by 15% resolving SDS-PAGE polyacrylamide gels then transferred to a PVDF membrane and probed with anti-human PPARα antibody (mapping to C-terminal aa 420–468 of the PPARαLBD; cat. no. sc1982 Santa-Cruz Biotechnology, Santa Cruz, CA, USA) by western blotting.

human L-FABP [7] = molecular target: T4, human L-FABP; test: Differential scanning calorimetry of L-FABP; set-up: [His]6 (N); made in house; host or cells: E. coli BL21 Codon Plus (DE3)-RIL; conditions: holo-drug L-FABP; apo L-FABP Tm = 80.1; scan rate 0.5°C/min
Experimental: DSC measurements were performed on N-DSC II calorimeter (Calorimetry Sciences Corporation, UT, USA) at a heating rate of 0.5°C/min. For preparation of 250 μM protein sample solutions, L-FABP was extensively buffer exchanged into buffer E (20 mM Tris-HCl pH 8.0) by ultrafiltration using Amicon Ultra 3 K centrifugal concentrators and degassed prior to filling the calorimeter cells. The filtrate from the sample preparation was used as a reference buffer for the DSC measurements. The thermal transition mid-point temperatures (T m) were calculated using CpCalc software (Calorimetry Sciences Corporation, UT, USA).

human L-FABP [8] = molecular target: T4, human L-FABP; test: Fluorescent binding cavity probe binding to L-FABP
[9] = cis-parinaric acid (2 μM) displacement, LBD 1 μM, nd = no binding detected, read-out: Ki, PPARγLBD

Row | SMILES | Ki [1] [µM] | Ki [2] [µM] | Ki (human L-FABP [5]) [µM] | further results
1 | CCCCCCCC/C=C\CCCCCCCC(=O)O [Oleate] | 0.21 ± 0.08 | 1.1 ± 0.26 |  | Ki [3]: 0.6 ± 0.015 µM
2 | CCCc1c(OCCCOc2ccc(OCC(=O)O)cc2)ccc(C(C)=O)c1O [L-165,041] | 4.2 ± 0.4 | 0.8 ± 0.3 | 1.4 ± 0.6 | protection of L-FABP from limited proteolysis (human L-FABP [4]): protects L-FABP from limited proteolysis; Ki (human L-FABP [6]): 2.3 µM; displacement of cis-parinaric acid fluorescence from L-FABP (human L-FABP [6]): could not completely displace the cis-parinaric acid fluorescence; Ki [3, 9]: 12 ± 2.1 µM
3 | Cc1c(C)c2c(c(C)c1O)CCC(C)(COc1ccc(CC3SC(=O)NC3=O)cc1)O2 (centres unmarked) [Troglitazone] |  |  | 1.7 ± 0.5 | 
4 | CC(C)(Sc1ccc(CCN(CCCCC2CCCCC2)C(=O)NC2CCCCC2)cc1)C(=O)O [GW7647] |  |  | 0.32 ± 0.13 | protection of L-FABP from limited proteolysis (human L-FABP [4]): afforded more resistance to proteolysis; Ki (human L-FABP [6]): 0.55 µM; displacement of cis-parinaric acid fluorescence from L-FABP (human L-FABP [6]): could not completely displace the cis-parinaric acid fluorescence; protection of PPARαLBD from limited proteolysis (PPARαLBD): afforded protection to the PPARαLBD against proteolysis; thermal transition mid-point temperature (Tm) of L-FABP in complex with drug (human L-FABP [7]): 86.7 °C
5 | CN(CCOc1ccc(C[C@H](Nc2ccccc2C(=O)c2ccccc2)C(=O)O)cc1)c1ccccn1 [GW1929] |  |  | 1.6 ± 0.7 | 
6 | CC(C)(Oc1ccc(C(=O)c2ccc(Cl)cc2)cc1)C(=O)O [Fenofibric acid] | 10 ± 3 | 49 ± 4 | 1 ± 0.2 | 
7 | Cc1nc(-c2ccc(C(F)(F)F)cc2)sc1C(=O)NCc1ccc(OC(C)(C)C(=O)O)cc1 [GW590735] |  | 23 ± 4 | 20 ± 3.8 | Ki [3, 9]: 4.4 ± 2.3 µM
8 | CN(CCOc1ccc(CC2SC(=O)NC2=O)cc1)c1ccccn1 (centres unmarked) [Rosiglitazone] |  |  | 2.8 ± 1.1 | 
9 | O=S(=O)(O)c1cccc2cccc(Nc3ccccc3)c12 |  |  |  | Kd (human L-FABP [8]): 6 ± 2.6 µM
